Results taken from patent US10214519B2, “Phosphatidylinositol 3-kinase inhibitors” (Gilead Sciences, Inc., priority 2016, dated 2019).

target: PI3Kβ (Homo sapiens (Human), UniProt P42338); test: PI3K isoform TR-FRET enzymatic assay (PI3Kβ); format: biochemical; conditions: 2× Km ATP, 30 minutes at 25° C.
Protocol: The compounds of formula (I) were characterized for their enzymatic activity against the PI3K isoforms. The activities were measured using a time-resolved fluorescence resonance energy transfer (TR-FRET) assay. TR-FRET monitored the formation of 3,4,5-inositol triphosphate molecule that competed with fluorescently labeled PIP3 for binding to the GRP-1 pleckstrin homology domain protein.
Class I PI3K isoforms were expressed and purified as heterodimeric recombinant proteins. All assay reagents and buffers for the TR-FRET assay were purchased from Millipore. […] The compounds were added to the assay solution and incubated for 30 minutes at 25° C. The reactions were terminated with a final concentration of 10 mM EDTA, 10 nM labeled-PIP3, and 35 nM Europium labeled GRP-1 detector protein before reading TR-FRET on an Envision plate reader (Ex: 340 nm; Em: 615/665 nm; 100 μs delay and 500 μs read window).
The results were normalized based on positive (1 μM wortmanin) and negative (DMSO) controls, and the IC50 values for PI3K α, β, δ, and γ were calculated from the fit of the dose-response curves to a four-parameter equation.

PI3Kβ, sequence (P42338 whole entry, the tested form may be a part, canonical isoform): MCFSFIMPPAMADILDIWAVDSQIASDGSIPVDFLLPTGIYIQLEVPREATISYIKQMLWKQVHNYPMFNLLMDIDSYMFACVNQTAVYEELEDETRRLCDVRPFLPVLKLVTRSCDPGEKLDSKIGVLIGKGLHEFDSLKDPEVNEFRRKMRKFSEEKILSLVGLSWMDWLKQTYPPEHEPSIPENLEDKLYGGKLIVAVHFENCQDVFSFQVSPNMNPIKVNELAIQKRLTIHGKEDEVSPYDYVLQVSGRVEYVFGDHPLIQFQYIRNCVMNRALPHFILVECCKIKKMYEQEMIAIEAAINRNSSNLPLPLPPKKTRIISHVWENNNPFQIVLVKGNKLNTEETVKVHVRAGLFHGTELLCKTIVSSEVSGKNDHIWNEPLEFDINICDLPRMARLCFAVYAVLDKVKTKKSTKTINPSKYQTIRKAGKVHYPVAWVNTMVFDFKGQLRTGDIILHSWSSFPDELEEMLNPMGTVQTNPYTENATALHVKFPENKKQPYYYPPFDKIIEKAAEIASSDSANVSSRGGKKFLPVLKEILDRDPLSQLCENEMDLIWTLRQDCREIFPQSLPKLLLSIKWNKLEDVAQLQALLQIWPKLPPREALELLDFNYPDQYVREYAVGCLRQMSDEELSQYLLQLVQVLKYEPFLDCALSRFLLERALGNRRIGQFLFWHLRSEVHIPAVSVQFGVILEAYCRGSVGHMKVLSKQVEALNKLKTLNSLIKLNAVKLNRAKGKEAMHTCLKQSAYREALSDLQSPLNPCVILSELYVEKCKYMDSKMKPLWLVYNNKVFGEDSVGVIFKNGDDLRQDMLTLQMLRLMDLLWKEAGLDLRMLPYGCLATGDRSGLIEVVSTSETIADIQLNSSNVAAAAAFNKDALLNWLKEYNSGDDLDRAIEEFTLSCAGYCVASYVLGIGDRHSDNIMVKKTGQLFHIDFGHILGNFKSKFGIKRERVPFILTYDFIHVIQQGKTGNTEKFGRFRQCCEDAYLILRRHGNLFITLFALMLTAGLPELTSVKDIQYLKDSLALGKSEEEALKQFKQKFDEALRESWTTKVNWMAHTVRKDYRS
PI3Kβ, sequence (P27986 whole entry partner, the tested form may be a part, canonical isoform): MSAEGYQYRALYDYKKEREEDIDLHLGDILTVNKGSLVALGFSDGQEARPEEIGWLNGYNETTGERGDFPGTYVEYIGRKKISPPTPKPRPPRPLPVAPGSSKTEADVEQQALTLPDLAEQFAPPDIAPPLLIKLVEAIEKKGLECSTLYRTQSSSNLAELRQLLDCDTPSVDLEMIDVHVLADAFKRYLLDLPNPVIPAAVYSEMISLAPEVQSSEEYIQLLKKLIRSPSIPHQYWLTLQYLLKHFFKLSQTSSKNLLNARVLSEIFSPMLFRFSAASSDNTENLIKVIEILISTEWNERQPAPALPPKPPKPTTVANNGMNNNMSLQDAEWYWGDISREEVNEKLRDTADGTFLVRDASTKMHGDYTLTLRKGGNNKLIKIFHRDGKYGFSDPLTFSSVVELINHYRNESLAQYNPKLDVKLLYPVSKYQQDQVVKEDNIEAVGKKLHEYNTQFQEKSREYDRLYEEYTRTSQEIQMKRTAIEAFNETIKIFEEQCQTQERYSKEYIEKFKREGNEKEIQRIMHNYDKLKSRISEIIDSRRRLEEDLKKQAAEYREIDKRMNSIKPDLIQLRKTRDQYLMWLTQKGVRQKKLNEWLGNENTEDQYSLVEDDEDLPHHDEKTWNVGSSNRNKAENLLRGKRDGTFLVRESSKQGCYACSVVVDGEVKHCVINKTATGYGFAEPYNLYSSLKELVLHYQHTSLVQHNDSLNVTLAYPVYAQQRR

SMILES	IC50
Clc1cccc2c(-n3c(-c4ccn[nH]4)nc4c(-c5nnc[nH]5)cc(N5CCOCC5)cc43)ccnc12 [Example 117, 4-[3-(8-chloroquinolin-4-yl)-2-(1H-pyrazol-5-yl)-7-(4H-1,2,4-triazol-3-yl)benzimidazol-5-yl]morpholine]	15 nM
CCc1nc2c(-c3c[nH]cn3)cc(N3CCOCC3)cc2n1-c1ccnc2c(Cl)cccc12 [Example 331, 4-[3-(8-chloroquinolin-4-yl)-2-ethyl-7-(1H-imidazol-4-yl)benzimidazol-5-yl]morpholine]	7 nM
CCc1nc2c(-c3nnc[nH]3)cc(N3CCOCC3)cc2n1-c1ccnc2c(Cl)cccc12 [Example 105, 4-[3-(8-chloroquinolin-4-yl)-2-ethyl-7-(4H-1,2,4-triazol-3-yl)benzimidazol-5-yl]morpholine]	10 nM
CCc1nc2c(-c3nnc(C)[nH]3)cc(N3CCOCC3)cc2n1-c1c(Cl)cnc2c(Cl)cccc12 (atropisomer, axis not shown) [Compound 349, 4-[3-(3,8-dichloroquinolin-4-yl)-2-ethyl-7-(5-methyl-4H-1,2,4-triazol-3-yl)benzimidazol-5-yl]morpholine]	439 nM
Cc1nc2c(-c3ccoc3)cc(N3CCOCC3)cc2n1-c1ccnc2c(Cl)cccc12 [Example 275, 4-[3-(8-chloroquinolin-4-yl)-7-(furan-3-yl)-2-methylbenzimidazol-5-yl]morpholine]	88 nM
Fc1ccc(F)c2c(-n3cnc4c(-c5cnc(Cl)[nH]5)cc(N5CCOCC5)cc43)ccnc12 [Example 308, 4-[7-(2-chloro-1H-imidazol-5-yl)-3-(5,8-difluoroquinolin-4-yl)benzimidazol-5-yl]morpholine]	6 nM
Cc1cnc2c(C#N)cccc2c1-n1c(C)nc2c(-c3nnc[nH]3)cc(N3CCOCC3)cc21 [Example 156, 3-methyl-4-(2-methyl-6-morpholino-4-(4H-1,2,4-triazol-3-yl)-1H-benzo[d]imidazol-1-yl)quinoline-8-carbonitrile]	20 nM

More lines, in order of falling IC50, values ahead:

IC50	SMILES
130 nM	Cc1nnc(-c2cc(N3CCOCC3)cc3c2ncn3-c2cc(-c3cc[nH]n3)nc3ccccc23)[nH]1 [Example 382, 4-(1-(2-(1H-pyrazol-3-yl)quinolin-4-yl)-4-(5-methyl-4H-1,2,4-triazol-3-yl)-1H-benzo[d]imidazol-6-yl)morpholine]
46 nM	Cc1nc2c(-c3nnc[nH]3)cc(N3CCOCC3)cc2n1-c1ccnc2cc(F)cc(F)c12 [Example 131, 4-[3-(5,7-difluoroquinolin-4-yl)-2-methyl-7-(4H-1,2,4-triazol-3-yl)benzimidazol-5-yl]morpholine]
21 nM	Cc1cc(-n2c(C)nc3c(-c4nnc[nH]4)cc(N4CCOCC4)cc32)c2cccc(Cl)c2n1 [Example 64, 4-[3-(8-chloro-2-methylquinolin-4-yl)-2-methyl-7-(4H-1,2,4-triazol-3-yl)benzimidazol-5-yl]morpholine]
18 nM	Fc1cccc2c(-n3c(CC4CC4)nc4c(-c5ncco5)cc(N5CCOCC5)cc43)ccnc12 [Example 225, 4-[2-(cyclopropylmethyl)-3-(8-fluoroquinolin-4-yl)-7-(1,3-oxazol-2-yl)benzimidazol-5-yl]morpholine]
11 nM	CCCc1nc2c(-c3nnc[nH]3)cc(N3CCOCC3)cc2n1-c1ccnc2c(C)ccc(F)c12 [Example 37, 4-(1-(5-fluoro-8-methylquinolin-4-yl)-2-propyl-4-(4H-1,2,4-triazol-3-yl)-1H-benzo[d]imidazol-6-yl)morpholine]
9 nM	CCCc1nc2c(-c3ncco3)cc(N3CCOCC3)cc2n1-c1ccnc2c(F)cccc12 [Example 223, 4-[3-(8-fluoroquinolin4-yl)-7-(1,3-oxazol-2-yl)-2-propylbenzimidazol-5-yl]morpholine]
4 nM	Clc1ncc(-c2cc(N3CCOCC3)cc3c2ncn3-c2ccnc3c(Cl)cccc23)[nH]1 [Example 285, 4-[7-(2-chloro-1H-imidazol-5-yl)-3-(8-chloroquinolin-4-yl)benzimidazol-5-yl]morpholine]
